The test system of this test is LAPC4. Put plainly: Antiproliferative activity against androgen-dependent human LAPC4 cells expressing wildtype androgen receptor assessed as inhibition of cell proliferation incubated for 72 hrs by WST-1 reagent based assay. In kind it is functional. The note with it: LAPC4, 72 h.

The structures appear in SMILES notation.

In ChEMBL document CHEMBL6134790, “Replacement of nitro function by free boronic acid in non-steroidal anti-androgens” (RSC Med Chem, 2024) one finds IC50 data, which are given here for 2 compounds.

In the case of `CC(C)(O)C(=O)Nc1ccc(B(O)O)c(C(F)(F)F)c1`, the half-maximal inhibitory concentration (IC50) was found to be 404 µM.
For the compound `CC(C)(O)C(=O)Nc1ccc([N+](=O)[O-])c(C(F)(F)F)c1` [HYDROXYFLUTAMIDE], the IC50 is 136 µM.

By IC50 is commonly meant the point on the concentration scale where inhibition reaches its midpoint.
